Assay results: US5036097A, “Phenylbutyl nitrone compositions and methods for prevention of gastric ulceration” (Oklahoma Medical Research Foundation, priority 1990, dated 1991)
Entries after “also recorded” stand apart in the source; their conditions may differ.

Legend:
[1] = test system: gastric ulceration; experiment: NSAID-induced gastric ulceration in rats (surface area of ulceration); type: in vivo, rat (male Sprague-Dawley); conditions: 4 h
Procedure: Male Sprague-Dawley rats (Charles River, Wilmington, Mass.) weighing 300-325 g were housed individually in wire bottomed cages to prevent ingestion of hair and feces. […] Piroxicam or aspirin and other NSAIDS were suspended in a vehicle of 1% carboxymethylcellulose, 0.1% Tween 80 and 0.15 M HCl, and administered in a volume of 1 ml on the morning of study by oral gavage using an 18 gauge curved blunt needle (Popper and Sons, New Hyde Park, N.Y.). One ml of vehicle alone was administered for control experiments. HCl was added to the vehicle to insure an acid environment in the stomach in all studies. […] Four hours after the administration of NSAID or vehicle, rats were euthanized with sodium pentobarbital (100 mg/kg IP), and the surface area of ulceration per stomach was quantitated using morphometric techniques. Stomachs were removed, the lumen was exposed by an incision along the radius of greater curvature, and the stomach was washed in phosphate buffered saline. The luminal surface was laid out on a flat surface with gross folds removed by gentle distension. The percentage of surface involved with submucosal hemorrhage was then determined by point counting, as described by Weibel, E. R. Stereological Methods: Practical Methods for Biological Morphometry. […] This was done by tabulation of the percentage of points over ulcerations using a point counting eyepiece graticle (16×16 points in a square format). At the 12X magnification used on the Wild dissecting microscope (Wild-Heerbrugg, Basel, Switzerland), the graticle covered a 1 cm^2 area of the surface. Four to five non-overlapping sampling sites were taken to fully cover the exposed surface. To determine the total luminal surface area, the outline of the outer boundary of the stomach was traced using a transparent acetate sheet, and the area was determined from planimetry. The surface area of ulcerated regions per stomach was then determined by multiplying the surface density of ulceration regions by the luminal surface area of the stomach.
Differences in total luminal surface area in cm^2, surface area of ulcerated regions per stomach and biochemical analyses between each treatment intervention and its corresponding untreated control group are compared using the Mann-Whitney U Test, Dixon, W. J., Massey, F. J., Jr. Introduction to statistical methods, 4th edition. […] In vitro studies are compared using the Student's unpaired T-test, Dixon, W. J., Massey, F. J., Jr. Introduction to statistical methods, 4th edition. […] Values are expressed as mean±SEM. Significance is assumed when P<0.05.
Phenyl N-tert-butyl nitrone is obtained from Aldrich Chemicals, Milwaukee, Wis. All other chemicals and pharmaceuticals are from Sigma Chemical.

[2] = test system: gastric biopsies (lipid peroxidation); experiment: lipid peroxidation in stomachs (thiobarbituric acid reactivity of gastric punch biopsies); type: in vivo, rat; conditions: 4 h after piroxicam, P<0.05 vs vehicle (0.075±0.004)
Description: MEASUREMENT OF LIPID PEROXIDATION IN STOMACHS. Lipid peroxidation is studied in piroxicam-and vehicle-treated rat stomachs by measuring thiobarbituric acid (TBA) reactivity of gastric punch biopsies by the method of Buege and Aust Buege, J. A., Aust, S. D. Methods Enzymol 51:302-310 (1978). Four hours after piroxicam or vehicle, stomachs are opened along the radius of greater curvature, washed with ice cold normal saline, and spread along a flat surface with lumens exposed. Five punch biopsies from mucosal through serosal surfaces are taken from each stomach using a 3 mm diameter skin biopsy punch. Biopsies are taken over ulcers in piroxicam treated stomachs and randomly over gastric rugae (where ulcers occur) in vehicle control stomachs. Biopsies from each stomach are combined, homogenized on ice in 1 ml of cold 1.15% KCl, and mixed with 2 ml of TBA reagent (0.375% thiobarbituric acid and 15% trichloroacetic acid in 0.25 HCl, to which 0.01% butylated hydroxytoluene is added just prior to use). After incubation at 100° C. for 15 minutes, the mixture is cooled and centrifuged at 1,500 g for 10 min. The absorbance of the supernatant is measured at 532 nm, and results expressed as […] per stomach.

[3] = test system: gastric mucosal glutathione; experiment: glutathione in gastric mucosa; type: in vivo, rat; conditions: 4 h after piroxicam
Procedure: MEASUREMENT OF GLUTATHIONE IN GASTRIC MUCOSA.
Gastric mucosal glutathione is measured in piroxicam-and vehicle-treated rat stomachs. Four hours after piroxicam or vehicle, stomachs are opened, washed with ice cold saline, and spread along a flat surface with lumens exposed. The gastric mucosa is then removed by scraping with a surgical blade. The mucosa is homogenized on ice in 1 ml of 1.15% KCl. Two aliquots of 250 μl are snap frozen in liquid nitrogen and stored at -70° C. for later determination of total glutathione by the method of Anderson, M. E. Methods Enzymol 113:548-555 (1985) and protein by a modification of the Lowry method, described by Bennett, J. P. Techniques Lipid Membrane Biochem. B408:1-22 (1982), using bovine serum albumin as a standard. Results are expressed as nmole/mg protein. To measure oxidized glutathione (GSSG), the remaining 500 μl is mixed with an equal volume of N-ethylmaleimide (NEM) in water (10 mM final concentration of NEM), snap frozen and stored at -70° C. After thawing for analysis, this mixture is passed over a C-18 Sep-Pak column (Waters Associates, Milford, Mass.) and washed with 1 ml phosphate buffer (pH 7.5). This technique for removing excess NEM has been previously shown to result in >90% recovery of GSSG. GSSG is then assayed by the method used above to determine total glutathione.

SMILES: CN1C(C(=O)Nc2ccccn2)=C(O)c2ccccc2S1(=O)=O [piroxicam]
- gastric ulceration, in words ([1]; oral gavage, 23 mg/kg piroxicam, vs vehicle, 23 mg/kg): prominent ulceration along the ridges of gastric rugae; also recorded: consistently produced ulceration; also recorded: profound gastric ulceration
- mean ulceration in piroxicam-treated control stomachs ([1]; piroxicam 23 mg/kg p.o., absence of an intervention): 0.215 cm^2
- thiobarbituric acid reactivity, A532 [2]: 0.104±0.010 A532
- total glutathione in gastric mucosa ([3]; difference vs vehicle not statistically significant): 0.33±0.03 nmoles/mg protein
- fraction of GSSG ([3]; vehicle 6.4 0.7%, not statistically significant): 8.9±0.9%
